The structures appear in SMILES notation.

Data set [1] is described as follows: Dolutegravir solubility in the presence of monovalent and divalent ions. It counts as physicochemical. Particulars: thermodynamic from solid, 20 mg in 12 ml. On the procedure: Solubility was determined by dissolving 20 mg of dolutegravir into 12 ml of water containing the specified ion (see Table 1) at a concentration of 500 ppm.
Data set [2] is described as follows: Solubility of dolutegravir in types of potable water (FIG. 1). It counts as physicochemical. Particulars: water with no ions present (purified water) vs other types of potable water. From the text:
The solubility of dolutegravir is affected by the use of different types of potable water, for example purified water, tap water and different brands of bottled water (see FIG. 1). The reason for this difference in solubility is believed to be due to the presence of ions typically found in water. When water with no ions present (purified water) is used to disperse dolutegravir, the solubility of dolutegravir is increased and a significant bitter taste may be observed.

Regarding `C[C@@H]1CCO[C@H]2Cn3cc(C(=O)NCc4ccc(F)cc4F)c(=O)c(O)c3C(=O)N12` [Dolutegravir, (4RX,12aS)-N-[(2,4-difluorophenyl)methyl]-7-hydroxy-4-methyl-6,8-dioxo-3,4,12,12a-tetrahydro-2H-pyrido[5,6]pyrazino[2,6-b][1,3]oxazine-9-carboxamide], the solubility in data set [1] (aqueous buffer, water containing calcium ion 500 ppm) stood at 30 µg/mL; in data set [1] (aqueous buffer, water containing magnesium ion 500 ppm), 210 µg/mL; in data set [1] (aqueous buffer, water containing potassium ion 500 ppm) it was 780 µg/mL; in data set [1] (aqueous buffer, water containing sodium ion 500 ppm), 460 µg/mL; in data set [1] (no ion (purified water)), 1200 µg/mL. The solubility of dolutegravir entry in data set [2] is recorded as “increased”.

The values above are taken from patent US20230285307A1, “Dispersible Tablet Formulations Comprising Dolutegravir” (ViiV Healthcare Company, priority 2020, published 2023).
